Data published in article PMC4505863 (ACS Chemical Neuroscience, 2014).
“Also recorded” adds a separate entry of the source. Where two headings read alike, the source gives them in different places.

What was measured:
5-HT3 = target: T1, 5-HT3 (Homo sapiens, UniProt P46098); experiment: PDSP screening affinity 5-HT3; assay type: binding
T1 sequence (P46098 24-478): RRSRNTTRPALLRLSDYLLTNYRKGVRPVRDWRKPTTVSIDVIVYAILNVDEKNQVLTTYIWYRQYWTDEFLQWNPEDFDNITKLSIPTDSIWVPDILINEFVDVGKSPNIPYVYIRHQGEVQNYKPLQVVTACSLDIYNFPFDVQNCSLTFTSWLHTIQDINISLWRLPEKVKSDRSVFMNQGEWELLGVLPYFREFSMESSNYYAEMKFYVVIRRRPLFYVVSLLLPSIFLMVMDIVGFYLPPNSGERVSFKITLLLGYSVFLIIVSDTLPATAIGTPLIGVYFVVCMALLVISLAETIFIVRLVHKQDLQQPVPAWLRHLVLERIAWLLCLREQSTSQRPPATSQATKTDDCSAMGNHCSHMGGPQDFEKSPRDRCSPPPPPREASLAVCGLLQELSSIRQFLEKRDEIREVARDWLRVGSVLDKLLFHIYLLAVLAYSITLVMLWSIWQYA

Male C57BL/6J mice = experiment: Mouse head twitch response; details: for activity in the HTR assay (active / inactive) / max counts / magnitude of peak effect × vehicle / maximally effective dose: SC; for activity in the HTR assay (active / inactive): doses up to 30 mg/kg; for max counts: HTR counts; for ED50: Mus musculus, sc, read-out: ED50 mg/kg (95% CI), mouse head twitch; for magnitude of peak effect × vehicle / maximally effective dose: mouse head twitch
5-HT1B = 5-HT1B (Homo sapiens, UniProt P28222); experiment: PDSP screening affinity 5-HT1B; assay type: binding
Sequence of 5-HT1B (P28222 whole entry): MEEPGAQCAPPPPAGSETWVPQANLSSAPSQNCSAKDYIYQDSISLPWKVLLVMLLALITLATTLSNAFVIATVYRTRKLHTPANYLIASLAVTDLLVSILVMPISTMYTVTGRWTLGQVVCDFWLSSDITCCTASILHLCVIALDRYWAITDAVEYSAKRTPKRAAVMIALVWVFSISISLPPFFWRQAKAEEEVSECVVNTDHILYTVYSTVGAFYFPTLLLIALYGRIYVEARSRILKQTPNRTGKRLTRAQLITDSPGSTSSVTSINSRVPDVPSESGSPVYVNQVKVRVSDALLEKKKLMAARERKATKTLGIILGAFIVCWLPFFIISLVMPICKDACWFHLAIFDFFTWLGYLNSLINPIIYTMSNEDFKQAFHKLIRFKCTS

5-ht5a = 5-ht5a (Homo sapiens, UniProt P47898); experiment: PDSP screening affinity 5-ht5a; assay type: binding
Sequence of 5-ht5a (P47898 whole entry): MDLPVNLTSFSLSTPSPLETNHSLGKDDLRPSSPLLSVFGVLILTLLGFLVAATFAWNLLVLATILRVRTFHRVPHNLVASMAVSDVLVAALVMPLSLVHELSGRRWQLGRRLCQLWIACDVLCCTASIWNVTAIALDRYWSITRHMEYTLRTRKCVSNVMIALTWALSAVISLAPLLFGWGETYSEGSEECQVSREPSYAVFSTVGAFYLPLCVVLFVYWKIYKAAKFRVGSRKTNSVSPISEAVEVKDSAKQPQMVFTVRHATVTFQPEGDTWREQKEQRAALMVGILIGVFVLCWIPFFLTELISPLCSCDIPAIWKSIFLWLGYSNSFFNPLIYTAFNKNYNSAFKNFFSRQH

5-HT1A = target: T2, 5-HT1A (Homo sapiens, UniProt P08908); experiment: PDSP screening affinity 5-HT1A; assay type: binding; details: 5-HT1A affinity
T2 sequence (P08908 1-422): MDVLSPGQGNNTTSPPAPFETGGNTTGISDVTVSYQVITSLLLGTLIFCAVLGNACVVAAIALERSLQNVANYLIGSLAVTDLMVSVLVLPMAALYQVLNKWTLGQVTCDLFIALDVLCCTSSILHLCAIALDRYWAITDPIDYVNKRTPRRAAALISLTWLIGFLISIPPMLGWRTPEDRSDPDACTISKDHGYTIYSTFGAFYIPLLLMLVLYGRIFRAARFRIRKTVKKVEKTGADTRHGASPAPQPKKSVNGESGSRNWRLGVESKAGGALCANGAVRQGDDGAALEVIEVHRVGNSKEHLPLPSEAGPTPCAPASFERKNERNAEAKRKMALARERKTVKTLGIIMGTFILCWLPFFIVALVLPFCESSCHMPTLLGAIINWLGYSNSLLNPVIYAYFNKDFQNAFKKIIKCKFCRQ

r5-HT2C = target: T3, r5-HT2C (Rattus norvegicus, UniProt P08909); experiment: Ca2+ mobilization assay; assay type: cell-based; details: for Emax: read-out: r5-HT2C Emax
T3 sequence (P08909 33-460): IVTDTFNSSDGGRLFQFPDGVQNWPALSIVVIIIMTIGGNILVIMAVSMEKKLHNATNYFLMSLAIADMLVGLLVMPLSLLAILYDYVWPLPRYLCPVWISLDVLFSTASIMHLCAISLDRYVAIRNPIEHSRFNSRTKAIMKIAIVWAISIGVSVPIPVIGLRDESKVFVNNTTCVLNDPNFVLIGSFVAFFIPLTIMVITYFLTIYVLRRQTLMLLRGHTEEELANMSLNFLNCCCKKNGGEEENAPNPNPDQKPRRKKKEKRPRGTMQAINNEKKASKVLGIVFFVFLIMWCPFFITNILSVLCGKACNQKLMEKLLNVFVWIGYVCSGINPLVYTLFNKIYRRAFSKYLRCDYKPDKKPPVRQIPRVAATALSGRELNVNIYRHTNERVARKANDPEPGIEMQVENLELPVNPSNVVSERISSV

5-HT6 = 5-HT6 (Homo sapiens, UniProt P50406); experiment: PDSP screening affinity 5-HT6; assay type: binding
Sequence of 5-HT6 (P50406 whole entry): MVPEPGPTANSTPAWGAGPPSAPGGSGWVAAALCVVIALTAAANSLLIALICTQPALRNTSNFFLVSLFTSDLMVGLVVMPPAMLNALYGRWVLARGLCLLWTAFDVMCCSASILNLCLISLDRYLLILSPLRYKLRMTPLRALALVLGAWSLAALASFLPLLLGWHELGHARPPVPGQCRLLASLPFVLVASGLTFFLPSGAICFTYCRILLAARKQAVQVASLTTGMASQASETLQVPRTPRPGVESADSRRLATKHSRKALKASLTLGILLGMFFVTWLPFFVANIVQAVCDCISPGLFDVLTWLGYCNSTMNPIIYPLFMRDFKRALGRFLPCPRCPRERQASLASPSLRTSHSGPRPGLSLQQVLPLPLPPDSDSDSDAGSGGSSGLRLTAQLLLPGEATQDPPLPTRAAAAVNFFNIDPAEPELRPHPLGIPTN

5-HT2A receptor [1] = target: T4, 5-HT2A receptor (Homo sapiens, UniProt P28223); experiment: h5-HT2A affinity, agonist radioligand [125I]DOI; assay type: binding
T4 sequence (P28223 whole entry): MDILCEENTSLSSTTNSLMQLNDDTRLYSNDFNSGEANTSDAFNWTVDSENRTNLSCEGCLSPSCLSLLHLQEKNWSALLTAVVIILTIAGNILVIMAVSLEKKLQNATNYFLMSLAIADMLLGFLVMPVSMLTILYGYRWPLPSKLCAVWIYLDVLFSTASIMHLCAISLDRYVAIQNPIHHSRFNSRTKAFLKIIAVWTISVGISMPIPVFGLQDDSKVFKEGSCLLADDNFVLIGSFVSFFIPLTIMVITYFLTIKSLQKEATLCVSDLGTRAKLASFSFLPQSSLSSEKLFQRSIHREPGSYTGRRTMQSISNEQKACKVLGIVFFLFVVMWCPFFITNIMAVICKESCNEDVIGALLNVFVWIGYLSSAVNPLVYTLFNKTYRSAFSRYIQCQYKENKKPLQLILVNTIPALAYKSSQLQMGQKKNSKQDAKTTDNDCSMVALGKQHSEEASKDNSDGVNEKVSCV

5-ht1e = 5-ht1e (Homo sapiens, UniProt P28566); experiment: PDSP screening affinity 5-ht1e; assay type: binding
Sequence of 5-ht1e (P28566 whole entry): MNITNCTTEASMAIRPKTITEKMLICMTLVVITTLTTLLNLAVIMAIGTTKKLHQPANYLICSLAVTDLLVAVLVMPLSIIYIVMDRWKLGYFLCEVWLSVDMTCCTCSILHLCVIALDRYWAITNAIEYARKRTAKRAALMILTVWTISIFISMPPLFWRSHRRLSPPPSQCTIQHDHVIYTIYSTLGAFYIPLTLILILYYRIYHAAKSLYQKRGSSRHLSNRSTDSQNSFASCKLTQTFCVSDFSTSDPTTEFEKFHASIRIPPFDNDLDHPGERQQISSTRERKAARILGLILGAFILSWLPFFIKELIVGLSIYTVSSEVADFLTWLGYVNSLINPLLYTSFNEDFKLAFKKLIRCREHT

5-HT2A receptor [2] = target: T4, 5-HT2A receptor; experiment: h5-HT2A affinity, antagonist radioligand [3H]ketanserin; assay type: binding
5-HT1D = 5-HT1D (Homo sapiens, UniProt P28221); experiment: PDSP screening affinity 5-HT1D; assay type: binding
Sequence of 5-HT1D (P28221 whole entry): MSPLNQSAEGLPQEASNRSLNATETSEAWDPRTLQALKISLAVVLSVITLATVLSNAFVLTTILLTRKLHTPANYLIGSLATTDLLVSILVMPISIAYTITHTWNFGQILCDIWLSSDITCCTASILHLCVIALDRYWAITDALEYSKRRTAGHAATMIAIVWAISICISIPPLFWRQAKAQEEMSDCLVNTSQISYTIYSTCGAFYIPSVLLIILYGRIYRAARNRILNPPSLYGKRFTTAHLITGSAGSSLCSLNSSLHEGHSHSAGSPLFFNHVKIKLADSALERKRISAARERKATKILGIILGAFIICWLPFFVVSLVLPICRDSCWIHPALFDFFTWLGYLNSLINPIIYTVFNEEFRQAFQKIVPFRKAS

h5-HT2B = h5-HT2B (Homo sapiens, UniProt P41595); experiment: Ca2+ mobilization assay; assay type: cell-based; details: for Emax: HEK293, read-out: h5-HT2B Emax
Sequence of h5-HT2B (P41595 whole entry): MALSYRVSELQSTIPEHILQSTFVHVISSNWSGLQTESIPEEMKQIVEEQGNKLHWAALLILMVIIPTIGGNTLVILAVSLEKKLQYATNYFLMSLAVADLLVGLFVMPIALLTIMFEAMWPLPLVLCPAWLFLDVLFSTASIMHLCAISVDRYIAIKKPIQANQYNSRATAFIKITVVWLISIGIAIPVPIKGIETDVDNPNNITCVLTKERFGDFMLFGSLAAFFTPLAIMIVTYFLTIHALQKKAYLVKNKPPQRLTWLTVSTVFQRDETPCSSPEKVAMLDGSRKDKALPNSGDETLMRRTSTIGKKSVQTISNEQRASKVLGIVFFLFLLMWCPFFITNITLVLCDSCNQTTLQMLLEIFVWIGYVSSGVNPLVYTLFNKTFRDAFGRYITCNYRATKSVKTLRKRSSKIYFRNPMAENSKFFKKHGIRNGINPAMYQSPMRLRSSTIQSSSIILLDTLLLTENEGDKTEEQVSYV

5-HT7 = 5-HT7 (Homo sapiens, UniProt P34969); experiment: PDSP screening affinity 5-HT7; assay type: binding
Sequence of 5-HT7 (P34969 whole entry): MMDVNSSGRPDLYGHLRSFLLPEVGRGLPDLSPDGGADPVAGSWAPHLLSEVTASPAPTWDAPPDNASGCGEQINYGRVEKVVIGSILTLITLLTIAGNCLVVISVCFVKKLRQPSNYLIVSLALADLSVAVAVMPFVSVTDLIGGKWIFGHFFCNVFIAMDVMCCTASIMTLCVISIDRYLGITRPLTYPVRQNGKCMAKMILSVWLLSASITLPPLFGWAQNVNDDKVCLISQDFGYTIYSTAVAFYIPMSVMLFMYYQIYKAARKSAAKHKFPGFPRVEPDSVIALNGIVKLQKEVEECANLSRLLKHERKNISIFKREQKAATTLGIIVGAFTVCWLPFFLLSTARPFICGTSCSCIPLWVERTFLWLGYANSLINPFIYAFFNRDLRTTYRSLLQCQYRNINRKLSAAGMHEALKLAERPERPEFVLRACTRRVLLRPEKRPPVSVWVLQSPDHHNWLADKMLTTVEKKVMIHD

5-HT2B = 5-HT2B (Homo sapiens, UniProt P41595); experiment: PDSP screening affinity 5-HT2B; assay type: binding
Sequence of 5-HT2B (P41595 whole entry): as the sequence (P41595 whole entry) above

human 5-HT2C receptor [3] = target: T5, human 5-HT2C receptor (Homo sapiens, UniProt P28335); experiment: h5-HT2C affinity, agonist radioligand [125I]DOI; assay type: binding
T5 sequence (P28335 33-458): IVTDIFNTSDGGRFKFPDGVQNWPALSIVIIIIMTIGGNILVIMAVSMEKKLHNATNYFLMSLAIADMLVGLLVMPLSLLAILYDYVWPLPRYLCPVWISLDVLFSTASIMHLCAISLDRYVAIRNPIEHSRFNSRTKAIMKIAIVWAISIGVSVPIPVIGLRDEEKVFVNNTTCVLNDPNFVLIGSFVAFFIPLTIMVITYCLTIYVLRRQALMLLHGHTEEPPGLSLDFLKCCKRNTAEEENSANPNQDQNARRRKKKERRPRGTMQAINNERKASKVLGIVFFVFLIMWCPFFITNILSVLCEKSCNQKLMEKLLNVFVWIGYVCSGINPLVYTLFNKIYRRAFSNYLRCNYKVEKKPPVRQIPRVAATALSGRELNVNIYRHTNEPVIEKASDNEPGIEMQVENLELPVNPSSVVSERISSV

h5-HT2C = target: T6, h5-HT2C (Homo sapiens, UniProt P28335); experiment: Ca2+ mobilization assay; assay type: cell-based; details: for Emax: HEK293, read-out: h5HT2C Emax
T6 sequence (P28335 33-458): T5 sequence (P28335 33-458)

human 5-HT2C receptor [4] = target: T5, human 5-HT2C receptor; experiment: h5-HT2C affinity, antagonist radioligand [3H]mesulergine; assay type: binding
r5-HT2A = r5-HT2A (Rattus norvegicus, UniProt P14842); experiment: Ca2+ mobilization assay; assay type: cell-based; details: for Emax: read-out: r5-HT2A Emax, percentage of the maximum response to 5-HT
Sequence of r5-HT2A (P14842 whole entry): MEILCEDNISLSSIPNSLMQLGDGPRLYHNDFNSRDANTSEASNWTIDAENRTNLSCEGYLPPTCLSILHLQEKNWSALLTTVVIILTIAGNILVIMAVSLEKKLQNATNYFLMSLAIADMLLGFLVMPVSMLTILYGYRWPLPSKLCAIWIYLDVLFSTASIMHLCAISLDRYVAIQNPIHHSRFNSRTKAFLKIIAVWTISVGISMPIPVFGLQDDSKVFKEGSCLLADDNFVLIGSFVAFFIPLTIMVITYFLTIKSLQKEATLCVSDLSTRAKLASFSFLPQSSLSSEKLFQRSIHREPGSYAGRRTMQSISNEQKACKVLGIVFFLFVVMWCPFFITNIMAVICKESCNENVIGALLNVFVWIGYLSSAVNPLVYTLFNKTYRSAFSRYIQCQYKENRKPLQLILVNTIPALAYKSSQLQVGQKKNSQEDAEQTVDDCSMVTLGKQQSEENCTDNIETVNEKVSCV

h5-HT2A = h5-HT2A (Homo sapiens, UniProt P28223); experiment: Ca2+ mobilization assay; assay type: cell-based; details: for Emax: HEK293, read-out: h5-HT2A Emax, percentage of the maximum response to 5-HT
Sequence of h5-HT2A (P28223 whole entry): as the sequence (P28223 whole entry) above

[5] = r5-HT2C pEC50 ± SEM, Ca2+ mobilization
[6] = h5-HT2B EC50, Ca2+ mobilization
[7] = r5-HT2A EC50, Ca2+ mobilization
[8] = r5-HT2C EC50, Ca2+ mobilization

| Structure (SMILES) | Ki (5-HT3) [µM] | activity in the HTR assay (active / inactive) (Male C57BL/6J mice) | Ki (5-HT1B; 5-HT1B affinity) [µM] | Ki (5-ht5a; 5-ht5a affinity) [nM] | Ki (5-HT1A) [nM] | Emax (r5-HT2C) [%] | Ki (5-HT6; 5-HT6 affinity) [nM] | Ki (5-HT2A receptor [1]) [nM] | Ki (5-ht1e) [nM] | Ki (5-HT2A receptor [2]) [nM] | Ki (5-HT1D) [nM] | Emax (h5-HT2B) [%] | EC50 (h5-HT2B; [6]) [nM] | Ki (5-HT7; 5-HT7 affinity) [nM] | Ki (human 5-HT2C receptor [3]) [nM] | Emax (h5-HT2C) [%] | Ki (human 5-HT2C receptor [4]) [nM] | EC50 (r5-HT2A; [7]) [nM] | EC50 (h5-HT2A) [nM] | Emax (h5-HT2A) [%] | other results |
| --- | --- | --- | --- | --- | --- | --- | --- | --- | --- | --- | --- | --- | --- | --- | --- | --- | --- | --- | --- | --- | --- |
| COc1cc(CCNCc2cccc(Br)c2)c(OC)cc1I [Compound 4d, N-(3-Bromobenzyl)-2-(4-iodo-2,5-dimethoxyphenyl)ethan-1-amine] | > 10 | inactive | 1.57 | 1010 | 670 | 101 ± 2 | 175 | 0.57 | 792 | 3.98 | 162 | 90 ± 2 | 85 | 355 | 1.62 | 74 ± 5 | 7.59 | 14 | 17 | 87.5 ± 1.3 | Ki (5-ht5a; 5-ht5a pKi ± SEM): 1000 nM; EC50 (r5-HT2C; [5]): 36.3 nM; EC50 (h5-HT2B; h5-HT2B pEC50 ± SEM, Ca2+ mobilization, NA = not active, Emax ≤ 15%): 89.1 nM; Ki (5-HT2B; 5-HT2B pKi ± SEM): 12.9 nM; r5-HT2A Emax (r5-HT2A; percentage of the maximum response to 5-HT): 68.5 ± 0.9%; EC50 (r5-HT2A; r5-HT2A pEC50 ± SEM, Ca2+ mobilization): 15.8 nM |
| COc1ccc2[nH]cc(CCNCc3cccc(I)c3)c2c1 [Compound 5i, N-(3-Iodobenzyl)-2-(5-methoxy-1H-indol-3-yl)ethan-1-amine] | > 10 | – | – | 1540 | 122 | 110 ± 3 | 27 | 0.62 | > 10000 | 3.47 | 199 | 31 ± 2 | 43 | – | 1.05 | 94 ± 5 | 6.46 | 120 | 16 | 79 ± 1.1 | max counts (Male C57BL/6J mice): 20.2; ED50 (Male C57BL/6J mice): 7.77 mg/kg; magnitude of peak effect × vehicle (Male C57BL/6J mice): 3.4 × vehicle; maximally effective dose (Male C57BL/6J mice): 30 mg/kg; 5-HT1B pKi ± SEM (5-HT1B): 5.53 ± 0.05; Ki (5-HT1B; read-out: 5-HT1B affinity): 2.96 µM; EC50 (r5-HT2C; [8]): 313 nM; EC50 (r5-HT2C; [5]): 309 nM; Ki (5-HT6; 5-HT6 pKi ± SEM): 26.3 nM; h5-HT2A Ki (5-HT2A receptor [1]; [125I]DOI): subnanomolar affinity; Ki (5-HT7; 5-HT7 pKi ± SEM): 21.9 nM; Ki (5-HT2B; 5-HT2B affinity): 0.76 nM; EC50 (h5-HT2C; h5HT2C EC50, Ca2+ mobilization): 445 nM; Emax (r5-HT2A): 73.4 ± 1.4% |
| COc1ccc2[nH]cc(CCNCc3ccccc3Br)c2c1 [Compound 5d, N-(2-Bromobenzyl)-2-(5-methoxy-1H-indol-3-yl)ethan-1-amine] | 6.17 | failed to induce the HTR; also recorded: inactive | > 10 | > 10000 | 286 | 104 ± 3 | 203 | 2.34 | > 10000 | 25.1 | 782 | ≤ 15 | 168 | 1090 | 14.1 | 94 ± 5 | 100 | 450 | 30 | 74.7 ± 1.5 | EC50 (r5-HT2C; [8]): 898 nM; selectivity h5-HT2A versus h5-HT2C, affinity at the [125I]-DOI-labeled receptors (5-HT2A receptor [1]; agonist-labeled receptors): 6 fold; Ki (5-HT2B; 5-HT2B pKi ± SEM): 24 nM; EC50 (h5-HT2C; h5HT2C EC50, Ca2+ mobilization): 439 nM; Emax (r5-HT2A): 49.7 ± 1.2% |
| COc1cccc(CNCCc2cc(OC)c(I)cc2OC)c1 [Compound 4a, N-(3-Methoxybenzyl)-2-(4-iodo-2,5-dimethoxyphenyl)ethan-1-amine] | > 10 | active | 3.23 | 57 | 925 | 91 ± 3 | 67 | 0.269 | 1710 | 1.55 | 439 | ≤ 15 | 38 | 583 | 0.126 | 41 ± 6 | 4.17 | 27 | 28 | 71.6 ± 0.9 | max counts (Male C57BL/6J mice): 11.4; ED50 (Male C57BL/6J mice): 4.34 mg/kg; magnitude of peak effect × vehicle (Male C57BL/6J mice): 5.7 × vehicle; maximally effective dose (Male C57BL/6J mice): 30 mg/kg; EC50 (r5-HT2C; [8]): 133 nM; Ki (5-HT2B; 5-HT2B affinity): 4.6 nM; EC50 (h5-HT2C; h5HT2C EC50, Ca2+ mobilization): 33.8 nM; Emax (r5-HT2A): 51.7 ± 0.9% |
| COc1cc(CCNCc2ccc(Br)cc2)c(OC)cc1I [Compound 4e, N-(4-Bromobenzyl)-2-(4-iodo-2,5-dimethoxyphenyl)ethan-1-amine] | 2.46 | None of the phenethylamines or tryptamines with 4-substituted N-benzyl groups, 4b, 4e, 5c, or 5f, was active | 5.09 | 1850 | 649 | 105 ± 2 | 350 | 3.24 | > 10000 | 52.5 | 311 | 90 ± 2 | 610 | 641 | 3.31 | 77 ± 5 | 45.7 | 150 | 170 | 88 ± 1.4 | Ki (5-HT1B; 5-HT1B pKi ± SEM): 6.03 µM; EC50 (r5-HT2C; [8]): 290 nM; Ki (5-HT2B; 5-HT2B affinity): 68 nM; EC50 (h5-HT2C; h5HT2C EC50, Ca2+ mobilization): 200 nM; EC50 (h5-HT2C; h5HT2C pEC50 ± SEM, Ca2+ mobilization): 219 nM; Emax (r5-HT2A): 67.3 ± 0.9% |
